From patent publication US12486489B2, “Culture medium for testing drug resistance of H.pylori as well as preparation method and use thereof” (priority 2022, dated 2025)
Where two headings read alike, the source gives them in different places.

Columns and labels:
H. pylori [1] = assay: MIC of laboratory H. pylori strains by micro dilution method; type: cell-based; conditions: Helicobacter pylori
Experimental: (3) Preparation of bacterial solution: H. pylori grown in logarithmic phase on a solid plate is taken, BHI culture medium is used to prepare a bacterial suspension. The concentration of the bacterial solution is adjusted to 1×10^8 CFU/mL (OD600 is 0.3), diluted 10 times, 100 times, and 1000 times to implement a final concentration of […], for the subsequent use.
(4) Inoculation of bacterial solution: 10 μL of the above bacterial solution for the subsequent use is taken and added to wells the 1-10-th and the 12-th well (bacterial working concentration is 1×10^6 CFU/mL), the 11-th well serves as a non-bacterial control and only sterile water is added. The wells are cultivated for 72 hours to determine the results.

H. pylori [2] = assay: Verification of resistance breakpoint: growth of laboratory strains on Columbia solid culture medium with added antibiotics, 72 hours; type: cell-based, Helicobacter pylori
Experimental: The plates are cooled and inverted for approximately 10 mL/piece, marked properly for the subsequent use.
(2) Preparation of bacterial solution: H. pylori grown in logarithmic phase on a solid plate is taken to prepare a bacterial suspension by using BHI. The concentration OD600 is adjusted to 0.3 (1×10^8 CFU/mL), diluted 10 times for the subsequent use.
(3) Inoculation of bacterial solution: 10 μL of bacterial solution is taken and added to Columbia culture medium and the results are determined after cultivating for 72 hours.
(4) Result determination: the minimum drug concentration for no growth of bacteria on the plate is the minimum inhibitory concentration of the bacteria against the drug.

[3] = tested on: clinical H. pylori strain; assay: MIC of clinical H. pylori strains by micro dilution method; type: cell-based; conditions: Helicobacter pylori, 72 h, approximately 1.0×10^6 CFU/mL per well, 72 hours, read-out: MIC
Experimental: The characteristic culture media (A, B, C, D, E) are cultivated at a constant temperature of 37° C. for 36 hours in a three gas incubator. The characteristic culture media are removed and placed in a natural environment for 30 minutes to observe whether there are discolorations at the point of the culture medium where the specimen is dropped in. […] Another 100 μL of the specimen is taken and coated on Columbia solid culture medium and cultivated in a three gas incubator at a constant temperature of 37° C. for 3 days to 5 days. The number of colonies on the plate is counted to determine the initial inoculation amount. The micro dilution method is adopted to test the MIC of clinical specimen H. pylori, the test is meaningful only when there is no bacterial growth in the negative control well without bacteria and there is bacterial growth in the positive well with bacteria but without antibiotics.
H. pylori single colony grown on Colombian culture medium is taken (which is confirmed as H. pylori by urease, oxidase, catalase, and PCR testing of CagA gene, as illustrated in FIG. 13) and the bacteria are increased. During the preparation of MIC plates and bacterial solution, H. pylori with logarithmic growth phase is taken to prepare a bacterial suspension by using BHI. The concentration OD600 is adjusted to 0.3 (1×10^8 CFU/mL, diluted 10 times, 10 μL is taken and added to wells 1-8 (with a bacterial solution concentration of approximately 1.0×10^6 CFU/mL per well, cultivated for 72 hours to determine the results.

`C[C@H]1COc2c(N3CCN(C)CC3)c(F)cc3c(=O)c(C(=O)O)cn1c23` [Levofloxacin, levofloxacin] was tested, and the MIC (H. pylori [1]; read-out: minimum inhibitory concentration (MIC), strain 159, bacterial count 10^4 CFU/mL) was 0.5 µg/mL, the MIC (H. pylori [1]; read-out: minimum inhibitory concentration (MIC), strain 159, bacterial count 10^6 CFU/mL (first line of the strain)) was 2 µg/mL and the MIC (H. pylori [1]; read-out: minimum inhibitory concentration (MIC), strain 159, bacterial count 10^6 CFU/mL (second line of the strain)) was 1 µg/mL. For the same molecule, the MIC (H. pylori [1]; read-out: minimum inhibitory concentration (MIC), strain 161, bacterial count 10^4 CFU/mL) was 1 µg/mL, the MIC (H. pylori [1]; read-out: minimum inhibitory concentration (MIC), strain 161, bacterial count 10^6 CFU/mL (first line of the strain)) was 2 µg/mL and the MIC (H. pylori [1]; read-out: minimum inhibitory concentration (MIC), strain 161, bacterial count 10^6 CFU/mL (second line of the strain)) was 2 µg/mL. For the same molecule, the MIC (H. pylori [1]; read-out: minimum inhibitory concentration (MIC), strain 162, bacterial count 10^4 CFU/mL) was 2 µg/mL, the MIC (H. pylori [1]; read-out: minimum inhibitory concentration (MIC), strain 162, bacterial count 10^6 CFU/mL (first line of the strain)) was 8 µg/mL and the MIC (H. pylori [1]; read-out: minimum inhibitory concentration (MIC), strain 162, bacterial count 10^6 CFU/mL (second line of the strain)) was 4 µg/mL. For the same molecule, the MIC (H. pylori [1]; read-out: minimum inhibitory concentration (MIC), strain 163, bacterial count 10^4 CFU/mL) was 2 µg/mL, the MIC (H. pylori [1]; read-out: minimum inhibitory concentration (MIC), strain 163, bacterial count 10^6 CFU/mL (first line of the strain)) was 16 µg/mL and the MIC (H. pylori [1]; read-out: minimum inhibitory concentration (MIC), strain 163, bacterial count 10^6 CFU/mL (second line of the strain)) was 4 µg/mL. For the same molecule, the MIC (H. pylori [1]; read-out: minimum inhibitory concentration (MIC), strain 286, bacterial count 10^4 CFU/mL) was 0.5 µg/mL, the MIC (H. pylori [1]; read-out: minimum inhibitory concentration (MIC), strain 286, bacterial count 10^6 CFU/mL (first line of the strain)) was 1 µg/mL and the MIC (H. pylori [1]; read-out: minimum inhibitory concentration (MIC), strain 286, bacterial count 10^6 CFU/mL (second line of the strain)) was 0.5 µg/mL. It also gave an MIC (H. pylori [1]; read-out: minimum inhibitory concentration (MIC), strain 287, bacterial count 10^4 CFU/mL) of 1 µg/mL, an MIC (H. pylori [1]; read-out: minimum inhibitory concentration (MIC), strain 287, bacterial count 10^6 CFU/mL (first line of the strain)) of 4 µg/mL and an MIC (H. pylori [1]; read-out: minimum inhibitory concentration (MIC), strain 287, bacterial count 10^6 CFU/mL (second line of the strain)) of 2 µg/mL. For the same molecule, the MIC (H. pylori [1]; read-out: minimum inhibitory concentration (MIC), strain 289, bacterial count 10^4 CFU/mL) was 2 µg/mL, the MIC (H. pylori [1]; read-out: minimum inhibitory concentration (MIC), strain 289, bacterial count 10^6 CFU/mL (first line of the strain)) was 8 µg/mL and the MIC (H. pylori [1]; read-out: minimum inhibitory concentration (MIC), strain 289, bacterial count 10^6 CFU/mL (second line of the strain)) was 4 µg/mL. It also gave an MIC (H. pylori [1]; read-out: minimum inhibitory concentration (MIC), strain 290, bacterial count 10^4 CFU/mL) of 16 µg/mL, an MIC (H. pylori [1]; read-out: minimum inhibitory concentration (MIC), strain 290, bacterial count 10^6 CFU/mL (first line of the strain)) of 32 µg/mL and an MIC (H. pylori [1]; read-out: minimum inhibitory concentration (MIC), strain 290, bacterial count 10^6 CFU/mL (second line of the strain)) of 32 µg/mL. For the same molecule, the MIC (H. pylori [1]; resistant strains 159, 161, 162, 163, 286, 287, 289, and 290, bacterial count 1×10^6 CFU/mL, read-out: MICs) was 0.5 to 32 µg/mL, the MIC (H. pylori [1]; strain G27, bacterial count 10^4 CFU/mL, read-out: minimum inhibitory concentration (MIC)) was 0.0312 µg/mL and the MIC (H. pylori [1]; strain G27, bacterial count 10^6 CFU/mL (first line of the strain), read-out: minimum inhibitory concentration (MIC)) was 0.125 µg/mL. For the same molecule, the MIC (H. pylori [1]; strain G27, bacterial count 10^6 CFU/mL (second line of the strain), read-out: minimum inhibitory concentration (MIC)) was 0.0625 µg/mL, the “optimal concentration for adding antibiotics” value (H. pylori [2]; conclusion of breakpoint verification) was 0.5 µg/mL and the growth of bacterial (H. pylori [2]; strain 159, antibiotic 0.25 μg/mL) was “+”. For the same molecule, the growth of bacterial (H. pylori [2]; strain 159, antibiotic 0.5 μg/mL) was “+”, the growth of bacterial (H. pylori [2]; strain 159, antibiotic 1 μg/mL) was “−” and the growth of bacterial (H. pylori [2]; strain 161, antibiotic 0.25 μg/mL) was “+”. The growth of bacterial (H. pylori [2]; strain 161, antibiotic 0.5 μg/mL) was “+”, the growth of bacterial (H. pylori [2]; strain 161, antibiotic 1 μg/mL) was “−” and the growth of bacterial (H. pylori [2]; strain 162, antibiotic 0.25 μg/mL) was “+”. The growth of bacterial (H. pylori [2]; strain 162, antibiotic 0.5 μg/mL) was “+”, the growth of bacterial (H. pylori [2]; strain 162, antibiotic 1 μg/mL) was “−” and the growth of bacterial (H. pylori [2]; strain 163, antibiotic 0.25 μg/mL) was “+”. For the same molecule, the growth of bacterial (H. pylori [2]; strain 163, antibiotic 0.5 μg/mL) was “+”, the growth of bacterial (H. pylori [2]; strain 163, antibiotic 1 μg/mL) was “−” and the growth of bacterial (H. pylori [2]; strain 286, antibiotic 0.25 μg/mL) was “+”. The growth of bacterial (H. pylori [2]; strain 286, antibiotic 0.5 μg/mL) was “+”, the growth of bacterial (H. pylori [2]; strain 286, antibiotic 1 μg/mL) was “−” and the growth of bacterial (H. pylori [2]; strain 287, antibiotic 0.25 μg/mL) was “+”. For the same molecule, the growth of bacterial (H. pylori [2]; strain 287, antibiotic 0.5 μg/mL) was “+”, the growth of bacterial (H. pylori [2]; strain 287, antibiotic 1 μg/mL) was “−” and the growth of bacterial (H. pylori [2]; strain 289, antibiotic 0.25 μg/mL) was “+”. For the same molecule, the growth of bacterial (H. pylori [2]; strain 289, antibiotic 0.5 μg/mL) was “+”, the growth of bacterial (H. pylori [2]; strain 289, antibiotic 1 μg/mL) was “+” and the growth of bacterial (H. pylori [2]; strain 290, antibiotic 0.25 μg/mL) was “+”. The growth of bacterial (H. pylori [2]; strain 290, antibiotic 0.5 μg/mL) was “+”, the growth of bacterial (H. pylori [2]; strain 290, antibiotic 1 μg/mL) was “+” and the growth of bacterial (H. pylori [2]; strain 26695, antibiotic 0.25 μg/mL) was “−”. The growth of bacterial (H. pylori [2]; strain 26695, antibiotic 0.5 μg/mL) was “−”, the growth of bacterial (H. pylori [2]; strain 26695, antibiotic 1 μg/mL) was “−” and the growth of bacterial (H. pylori [2]; strain G27, antibiotic 0.25 μg/mL) was “+”. The growth of bacterial (H. pylori [2]; strain G27, antibiotic 0.5 μg/mL) was “−”, the growth of bacterial (H. pylori [2]; strain G27, antibiotic 1 μg/mL) was “−” and the MIC ([3]; clinical strain FY-31) was 16 µg/mL. The MIC ([3]; clinical strain FY-43) was 1 µg/mL, the MIC ([3]; clinical strain FY-47) was 0.5 µg/mL and the MIC ([3]; clinical strain FY-52) was 0.25 µg/mL.
